The results in this text go back to US10399940B2, “Substituted pyrrolidines and methods of use” (AbbVie S.à.r.l., priority 2016, dated 2019).

Like-named read-outs stand apart in the source and are kept apart here. Bounds are passed on as bounds.

The target of the assay is T1, F508delCFTR (Homo sapiens, UniProt P13569, DEL508-508).
T1 construct: expressed in transfected cells; host or cells: CFBE41o- (human lung derived epithelial cell line), doxycycline-inducible expression
The experiment in a line: Cell Surface Expression-Horse Radish Peroxidase (CSE-HRP) assay. The class given is cell-based. To be noted: CFBE41o-F508delCFTR-HRP cells; for Maximum % activity (with co-corrector): with co-corrector (2 μM); for Maximum % activity (with co-corrector) / Maximum % activity (without co-corrector): normalized to on-plate positive control, highest concentration 20 μM. The gist of the method: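 Surface F508delCFTR-HRP was read by luminol luminescence after 18–24 h compound exposure at 33 °C, without or with 2 μM co-corrector. Doses were eight 3-fold steps from 20 μM, in doxycycline-induced (0.5 μg/mL, 72 h) CFBE41o- cells. % activity was scaled to the on-plate 2 μM positive control minus DMSO; EC50 came from a variable-slope sigmoid fit.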

The mark [1] stands for this setting: test compound without co-corrector, 18-24 hours at 33° C., read-out: EC50 (without co-corrector).
The mark [2] stands for this setting: with co-corrector (2 μM of 3-[(2R,4R)-4-({[1-(2,2-difluoro-1,3-benzodioxol-5-yl)cyclopropyl]carbonyl}amino)-7-methoxy-3,4-dihydro-2H-chromen-2-yl]benzoic acid), read-out: EC50 (with co-corrector).

T1 sequence (P13569 with tags, fused parts or gaps DEL508-508): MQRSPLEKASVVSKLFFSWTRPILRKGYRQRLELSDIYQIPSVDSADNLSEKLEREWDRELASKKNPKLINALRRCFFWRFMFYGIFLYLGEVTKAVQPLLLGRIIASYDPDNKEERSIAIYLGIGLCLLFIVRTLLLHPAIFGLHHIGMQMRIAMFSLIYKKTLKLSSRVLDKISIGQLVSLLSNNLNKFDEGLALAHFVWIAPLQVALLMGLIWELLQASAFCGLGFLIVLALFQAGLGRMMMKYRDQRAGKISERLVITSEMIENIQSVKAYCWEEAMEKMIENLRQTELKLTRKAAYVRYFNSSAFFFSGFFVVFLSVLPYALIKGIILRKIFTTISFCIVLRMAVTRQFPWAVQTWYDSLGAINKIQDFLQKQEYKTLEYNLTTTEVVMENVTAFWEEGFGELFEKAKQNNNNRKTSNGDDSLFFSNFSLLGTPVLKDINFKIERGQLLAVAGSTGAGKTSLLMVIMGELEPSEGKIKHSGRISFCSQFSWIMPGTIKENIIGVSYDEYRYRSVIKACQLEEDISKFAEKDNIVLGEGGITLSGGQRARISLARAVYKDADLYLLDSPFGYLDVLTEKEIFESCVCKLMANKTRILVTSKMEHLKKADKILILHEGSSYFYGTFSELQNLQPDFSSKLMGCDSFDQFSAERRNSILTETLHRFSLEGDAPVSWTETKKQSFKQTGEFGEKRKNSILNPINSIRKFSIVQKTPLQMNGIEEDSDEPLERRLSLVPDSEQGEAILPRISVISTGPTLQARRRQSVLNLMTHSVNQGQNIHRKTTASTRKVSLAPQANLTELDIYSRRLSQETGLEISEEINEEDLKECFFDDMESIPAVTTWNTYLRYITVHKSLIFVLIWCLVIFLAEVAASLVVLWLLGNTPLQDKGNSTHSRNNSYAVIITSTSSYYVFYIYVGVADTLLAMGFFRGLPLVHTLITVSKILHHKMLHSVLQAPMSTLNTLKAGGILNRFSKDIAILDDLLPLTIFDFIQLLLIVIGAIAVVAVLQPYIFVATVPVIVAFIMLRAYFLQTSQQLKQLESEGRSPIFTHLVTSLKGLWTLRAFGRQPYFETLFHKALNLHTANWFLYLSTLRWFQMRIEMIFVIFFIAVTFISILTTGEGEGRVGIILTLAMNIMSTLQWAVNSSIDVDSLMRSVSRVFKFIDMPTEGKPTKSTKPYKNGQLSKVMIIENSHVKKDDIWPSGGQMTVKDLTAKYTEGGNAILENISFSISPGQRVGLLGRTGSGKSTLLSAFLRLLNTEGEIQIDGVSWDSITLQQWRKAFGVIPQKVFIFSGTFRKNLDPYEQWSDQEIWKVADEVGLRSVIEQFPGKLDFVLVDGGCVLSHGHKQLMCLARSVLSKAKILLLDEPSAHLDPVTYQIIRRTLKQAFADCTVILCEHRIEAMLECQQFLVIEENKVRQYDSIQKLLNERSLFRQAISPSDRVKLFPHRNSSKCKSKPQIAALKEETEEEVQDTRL

As usually defined, the EC50 is the concentration that produces a half-maximal response. As to `COc1ncc(C(F)(F)F)cc1CO[C@@H]1[C@H](C(C)(C)C)[C@@H](C(=O)O)N(C(=O)[C@@H]2CCCO2)[C@H]1c1cccc(C(C)(C)C)c1` [Example 122, (2S,3R,4R,5S)-3-tert-butyl-5-(3-tert-butylphenyl)-4-{[2-methoxy-5-(trifluoromethyl)pyridin-3-yl]methoxy}-1-[(2S)-oxolane-2-carbonyl]pyrrolidine-2-carboxylic acid], the “Maximum % activity (with co-corrector)” value is given as “+ (<150)” and the “Maximum % activity (without co-corrector)” value is reported as “+ (<100)”. Moreover, under setting [1], the concentration for a half-maximal effect (EC50) was > 10000 nM. Further, the EC50 under setting [2] is > 10000 nM.
Regarding `COc1ncc(C(F)(F)F)cc1CO[C@H]1[C@H](C(C)(C)C)[C@@H](C(=O)O)N(C(=O)[C@@H]2CCCCO2)[C@H]1c1cccc(Cl)c1` [Example 123, (2S,3R,4S,5S)-3-tert-butyl-5-(3-chlorophenyl)-4-{[2-methoxy-5-(trifluoromethyl)pyridin-3-yl]methoxy}-1-[(2S)-oxane-2-carbonyl]pyrrolidine-2-carboxylic acid], the “Maximum % activity (with co-corrector)” value is recorded as “+++ (≥350)”; the “Maximum % activity (without co-corrector)” value is “++ (≥100 and <200)”. In addition, the half-maximal effective concentration (EC50) under setting [1] was in the range of 1000 to 10000 nM. For the same molecule, under setting [2], the EC50 is < 1000 nM.
Take `COc1ncc(C(F)(F)F)cc1CO[C@H]1[C@H](C(C)(C)C)[C@@H](C(=O)O)N(C(=O)OC(C)C)[C@H]1c1cccc(Br)c1` [Example 124, (2S,3R,4S,5S)-5-(3-bromophenyl)-3-tert-butyl-4-{[2-methoxy-5-(trifluoromethyl)pyridin-3-yl]methoxy}-1-{[(propan-2-yl)oxy]carbonyl}pyrrolidine-2-carboxylic acid]: the “Maximum % activity (with co-corrector)” value was “++ (≥150 and <350)”; the “Maximum % activity (without co-corrector)” value was “+ (<100)”. Also, under setting [1], the 50% effective concentration (EC50) lay within 1000 to 10000 nM. Moreover, the EC50 under setting [2] was < 1000 nM.
In the case of `COc1ncc(C(F)(F)F)cc1CO[C@H]1[C@H](C(C)(C)C)[C@@H](C(=O)O)N(C(=O)[C@H]2CCCCO2)[C@H]1c1cccc(Cl)c1` [Example 125, (2S,3R,4S,5S)-3-tert-butyl-5-(3-chlorophenyl)-4-{[2-methoxy-5-(trifluoromethyl)pyridin-3-yl]methoxy}-1-[(2R)-oxane-2-carbonyl]pyrrolidine-2-carboxylic acid], the “Maximum % activity (with co-corrector)” value is “++ (≥150 and <350)”; the “Maximum % activity (without co-corrector)” value is recorded as “+ (<100)”. Further, the EC50 under setting [1] is < 1000 nM. The EC50 under setting [2] is < 1000 nM.
Regarding `COc1ncc(C(F)(F)F)cc1CO[C@@H]1[C@H](C(C)(C)C)[C@@H](C(=O)O)N(C(=O)[C@@H]2CCCO2)[C@H]1c1ccccc1Br` [Example 126, (2S,3R,4R,5S)-5-(2-bromophenyl)-3-tert-butyl-4-{[2-methoxy-5-(trifluoromethyl)pyridin-3-yl]methoxy}-1-[(2S)-oxolane-2-carbonyl]pyrrolidine-2-carboxylic acid], the “Maximum % activity (with co-corrector)” value is listed as “+ (<150)” and the “Maximum % activity (without co-corrector)” value is on record as “+ (<100)”. The EC50 under setting [1] is > 10000 nM. The half-maximal effective concentration (EC50) under setting [2] is > 10000 nM.
Regarding `COc1ncc(C(F)(F)F)cc1CO[C@H]1[C@H](C(C)(C)C)[C@@H](C(=O)O)N(C(=O)[C@@H]2CCCO2)[C@H]1c1ccnn1C(C)C` [Example 127, (2S,3R,4S,5S)-3-tert-butyl-4-{[2-methoxy-5-(trifluoromethyl)pyridin-3-yl]methoxy}-1-[(2S)-oxolane-2-carbonyl]-5-[1-(propan-2-yl)-1H-pyrazol-5-yl]pyrrolidine-2-carboxylic acid], the “Maximum % activity (with co-corrector)” value is “+ (<150)” and the “Maximum % activity (without co-corrector)” value was “+ (<100)”. The EC50 under setting [1] is > 10000 nM. For the same molecule, under setting [2], the concentration for a half-maximal effect (EC50) was > 10000 nM.
In the case of `COc1ncc(C(F)(F)F)cc1CO[C@H]1[C@H](C(C)(C)C)[C@@H](C(=O)O)N(C(=O)[C@@H]2CCCCO2)[C@H]1c1ccccc1C1CC1` [Example 128, (2S,3R,4S,5S)-3-tert-butyl-5-(2-cyclopropylphenyl)-4-{[2-methoxy-5-(trifluoromethyl)pyridin-3-yl]methoxy}-1-[(2S)-oxane-2-carbonyl]pyrrolidine-2-carboxylic acid], the “Maximum % activity (with co-corrector)” value is reported as “+++ (≥350)”; the “Maximum % activity (without co-corrector)” value is “++ (≥100 and <200)”. In addition, the EC50 under setting [1] lay in the range of 1000 to 10000 nM. For the same molecule, the 50% effective concentration (EC50) under setting [2] was < 1000 nM.
Regarding `COc1ncc(C(F)(F)F)cc1CO[C@H]1[C@H](C(C)(C)C)[C@@H](C(=O)O)N(C(=O)[C@@H]2CCCO2)[C@H]1c1ccccc1C` [Example 129, (2S,3R,4S,5S)-3-tert-butyl-4-{[2-methoxy-5-(trifluoromethyl)pyridin-3-yl]methoxy}-5-(2-methylphenyl)-1-[(2S)-oxolane-2-carbonyl]pyrrolidine-2-carboxylic acid], the “Maximum % activity (with co-corrector)” value is “+++ (≥350)”; the “Maximum % activity (without co-corrector)” value is “++ (≥100 and <200)”. Also, the EC50 under setting [1] is 1000 to 10000 nM. In addition, the half-maximal effective concentration (EC50) under setting [2] was < 1000 nM.
As for `COc1ncc(C2CCC2)cc1CO[C@H]1[C@H](C(C)(C)C)[C@@H](C(=O)O)N(C(=O)[C@@H]2CCCO2)[C@H]1c1ccccc1C(C)C` [Example 130, (2S,3R,4S,5S)-3-tert-butyl-4-[(5-cyclobutyl-2-methoxypyridin-3-yl)methoxy]-1-[(2S)-oxolane-2-carbonyl]-5-[2-(propan-2-yl)phenyl]pyrrolidine-2-carboxylic acid], the “Maximum % activity (with co-corrector)” value is recorded as “+++ (≥350)”; the “Maximum % activity (without co-corrector)” value is “++ (≥100 and <200)”. For the same molecule, under setting [1], the half-maximal effective concentration (EC50) is < 1000 nM. Further, the EC50 under setting [2] is < 1000 nM.
As for `COc1nc2ccccc2cc1CO[C@H]1[C@H](C(C)(C)C)[C@@H](C(=O)O)N(C(=O)[C@H]2CCCCO2)[C@H]1c1ccccc1C(C)C` [Example 131, (2S,3R,4S,5S)-3-tert-butyl-4-[(2-methoxyquinolin-3-yl)methoxy]-1-[(2R)-oxane-2-carbonyl]-5-[2-(propan-2-yl)phenyl]pyrrolidine-2-carboxylic acid], the “Maximum % activity (with co-corrector)” value was “++ (≥150 and <350)”; the “Maximum % activity (without co-corrector)” value is “+ (<100)”. Also, under setting [1], the half-maximal effective concentration (EC50) was < 1000 nM. Besides, the concentration for a half-maximal effect (EC50) under setting [2] is < 1000 nM.
Regarding `COc1nc2ccccc2cc1CO[C@H]1[C@H](C(C)(C)C)[C@@H](C(=O)O)N(C(=O)[C@@H]2CCCCO2)[C@H]1c1ccccc1C(C)C` [Example 132, (2S,3R,4S,5S)-3-tert-butyl-4-[(2-methoxyquinolin-3-yl)methoxy]-1-[(2S)-oxane-2-carbonyl]-5-[2-(propan-2-yl)phenyl]pyrrolidine-2-carboxylic acid], the “Maximum % activity (with co-corrector)” value is “+++ (≥350)”; the “Maximum % activity (without co-corrector)” value is “++ (≥100 and <200)”. Further, the EC50 under setting [1] lay within 1000 to 10000 nM. Under setting [2], the 50% effective concentration (EC50) is < 1000 nM.
For the molecule `COc1ncc(C2CCC2)cc1CO[C@H]1[C@H](C(C)(C)C)[C@@H](C(=O)O)N(C(=O)[C@@H]2CCCO2)[C@H]1c1cccnc1OC(C)C` [Example 133, (2S,3R,4S,5S)-3-tert-butyl-4-[(5-cyclobutyl-2-methoxypyridin-3-yl)methoxy]-1-[(2S)-oxolane-2-carbonyl]-5-{2-[(propan-2-yl)oxy]pyridin-3-yl}pyrrolidine-2-carboxylic acid], the “Maximum % activity (with co-corrector)” value is “+++ (≥350)”; the “Maximum % activity (without co-corrector)” value is “++ (≥100 and <200)”. The concentration for a half-maximal effect (EC50) under setting [1] is 1000 to 10000 nM. Besides, under setting [2], the EC50 lay within 1000 to 10000 nM.
For `COc1ncc(C2CCC2)cc1CO[C@H]1[C@H](C(C)(C)C)[C@@H](C(=O)O)N(C(=O)C2CCOCC2)[C@H]1c1cccnc1OC(C)C` [Example 134, (2S,3R,4S,5S)-3-tert-butyl-4-[(5-cyclobutyl-2-methoxypyridin-3-yl)methoxy]-1-(oxane-4-carbonyl)-5-{2-[(propan-2-yl)oxy]pyridin-3-yl}pyrrolidine-2-carboxylic acid], the “Maximum % activity (with co-corrector)” value is “++ (≥150 and <350)”; the “Maximum % activity (without co-corrector)” value was “++ (≥100 and <200)”. The EC50 under setting [1] was in the range of 1000 to 10000 nM. The EC50 under setting [2] was 1000 to 10000 nM.
Take `COc1ncc(C2CCC2)cc1CO[C@H]1[C@H](C(C)(C)C)[C@@H](C(=O)O)N(C(=O)[C@H]2CCCCO2)[C@H]1c1cccnc1OC(C)C` [Example 135, (2S,3R,4S,5S)-3-tert-butyl-4-[(5-cyclobutyl-2-methoxypyridin-3-yl)methoxy]-1-[(2R)-oxane-2-carbonyl]-5-{2-[(propan-2-yl)oxy]pyridin-3-yl}pyrrolidine-2-carboxylic acid]: the “Maximum % activity (with co-corrector)” value is “+++ (≥350)”; the “Maximum % activity (without co-corrector)” value is “++ (≥100 and <200)”. Besides, the EC50 under setting [1] lay within 1000 to 10000 nM. For the same molecule, the half-maximal effective concentration (EC50) under setting [2] is < 1000 nM.
Take `COc1ncc(C2CCC2)cc1CO[C@H]1[C@H](C(C)(C)C)[C@@H](C(=O)O)N(C(=O)[C@@H]2CCCCO2)[C@H]1c1cccnc1OC(C)C` [Example 136, (2S,3R,4S,5S)-3-tert-butyl-4-[(5-cyclobutyl-2-methoxypyridin-3-yl)methoxy]-1-[(2S)-oxane-2-carbonyl]-5-{2-[(propan-2-yl)oxy]pyridin-3-yl}pyrrolidine-2-carboxylic acid]: the “Maximum % activity (with co-corrector)” value was “+++ (≥350)”; the “Maximum % activity (without co-corrector)” value is “++ (≥100 and <200)”. Further, the EC50 under setting [1] is < 1000 nM. The concentration giving a half-maximal response (EC50) under setting [2] was < 1000 nM.
